Test results from patent publication US9474790B2, “Stable, protracted GLP-1/glucagon receptor co-agonists for medical use” (Novo Nordisk A/S, priority 2013, dated 2016).
Numbered stars: 1 amine (or outer) side, 2 acyl side, 3 side chain; on linkers, the order of the positions; unused ones are H or OH. Bridge positions count the residues as written; N and C are the ends. Square brackets hold non-standard residues; d marks the D form. Side chains are listed from the residue outwards. Peptide text beside a SMILES is read from it. I, II: the chains in the order shown. * marks the point of attachment. C18 diacid = O=C(O)CCCCCCCCCCCCCCCCC(=O)*; γGlu = O=C(O)[C@H](CCC(=O)[*:2])N[*:1]; AEEA = NCCOCCOCC(=O)O; Aib = CC(C)(N)C(=O)O

Experiment: Thioflavin T (ThT) fibrillation assay for physical stability
Type: physicochemical
Conditions: 250 μM in 10 mM HEPES buffer, pH 7.5, 37° C., shaking 960 rpm
How it was run: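 Peptide at 250 μM in 10 mM HEPES pH 7.5 with 1 μM ThT, at 37° C with 960 rpm orbital shaking. Fluorescence (ex 444/em 485 nm) read every 20 min after 10 min pre-incubation; sigmoidal fit gives lag time (t0−2τ) and kapp (1/τ). Recovery is RP-HPLC peptide in the centrifuged, 0.22 μm-filtered supernatant as % of initial.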

THT assay Lag time (Ex. 76) [h] | Compound
45 | CC(C)C[C@H](NC(=O)[C@H](Cc1c[nH]c2ccccc12)NC(=O)[C@H](C)NC(=O)[C@@H](NC(=O)[C@H](Cc1ccccc1)NC(=O)[C@H](CCC(=O)O)NC(=O)[C@H](CCCNC(=N)N)NC(=O)[C@H](C)NC(=O)[C@H](CCCNC(=N)N)NC(=O)[C@H](CCCNC(=N)N)NC(=O)[C@H](CO)NC(=O)[C@H](CCC(=O)O)NC(=O)[C@H](CC(C)C)NC(=O)[C@H](Cc1ccc(O)cc1)NC(=O)[C@H](CCCCN)NC(=O)[C@H](CO)NC(=O)[C@H](CC(C)C)NC(=O)[C@H](CC(=O)O)NC(=O)[C@H](CO)NC(=O)[C@@H](NC(=O)[C@H](Cc1ccccc1)NC(=O)[C@@H](NC(=O)CNC(=O)[C@H](Cc1c[nH]cn1)NC(=O)C(C)(C)NC(=O)[C@@H](N)Cc1c[nH]cn1)[C@@H](C)O)[C@@H](C)O)C(C)C)C(=O)N[C@@H](CC(C)C)C(=O)N[C@@H](CCCCNC(=O)CC[C@H](NC(=O)COCCOCCNC(=O)COCCOCCNC(=O)CC[C@H](NC(=O)CC[C@H](NC(=O)CCCCCCCCCCCCCCCCC(=O)O)C(=O)O)C(=O)O)C(=O)O)C(=O)N[C@H](C(N)=O)[C@@H](C)O [Example 31, N^ε28-[(4S)-4-carboxy-4-[[2-[2-[2-[[2-[2-[2-[[(4S)-4-carboxy-4-[[(4S)-4-carboxy-4-(17-carboxyheptadecanoylamino)butanoyl]amino]butanoyl]amino]ethoxy]ethoxy]acetyl]amino]ethoxy]ethoxy]acetyl]amino]butanoyl]-[Aib2,His3,Leu10,Glu15,Arg20,Glu21,Ala24,Leu27, Lys28]-Glucagon amide] (H-H[Aib]HGTFTSDLSKYLESRRAREFVAWLLK([γGlu-AEEA-AEEA-γGlu-γGlu-C18 diacid])T-NH2; N-terminus assumed)
6.7 | CC(C)C[C@H](NC(=O)[C@H](Cc1c[nH]c2ccccc12)NC(=O)[C@H](C)NC(=O)[C@@H](NC(=O)[C@H](Cc1ccccc1)NC(=O)[C@H](CCC(=O)O)NC(=O)[C@H](CCCNC(=N)N)NC(=O)[C@H](C)NC(=O)[C@H](CCCNC(=N)N)NC(=O)[C@H](CCCNC(=N)N)NC(=O)[C@H](CCCCNC(=O)CC[C@H](NC(=O)COCCOCCNC(=O)COCCOCCNC(=O)CC[C@H](NC(=O)CC[C@H](NC(=O)CCCCCCCCCCCCCCCCC(=O)O)C(=O)O)C(=O)O)C(=O)O)NC(=O)[C@H](CC(=O)O)NC(=O)[C@H](CC(C)C)NC(=O)[C@H](Cc1ccc(O)cc1)NC(=O)[C@H](CCCCN)NC(=O)[C@H](CO)NC(=O)[C@H](CC(C)C)NC(=O)[C@H](CC(=O)O)NC(=O)[C@H](CO)NC(=O)[C@@H](NC(=O)[C@H](Cc1ccccc1)NC(=O)[C@@H](NC(=O)CNC(=O)[C@H](CCC(N)=O)NC(=O)C(C)(C)NC(=O)[C@@H](N)Cc1c[nH]cn1)[C@@H](C)O)[C@@H](C)O)C(C)C)C(=O)N[C@@H](CC(C)C)C(=O)N[C@@H](CC(N)=O)C(=O)N[C@H](C(N)=O)[C@@H](C)O [Example 19, N^ε29-[(4S)-4-carboxy-4-[[2-[2-[2-[[2-[2-[2-[[(4S)-4-carboxy-4-[[(4S)-4-carboxy-4-(17-carboxyheptadecanoylamino)butanoyl]amino]butanoyl]amino]ethoxy]ethoxy]acetyl]amino]ethoxy]ethoxy]acetyl]amino]butanoyl]-[Aib2,Leu10,Lys16,Arg20,Glu21,Ala24,Leu27]-Glucagon amide] (H-H[Aib]QGTFTSDLSKYLDK([γGlu-AEEA-AEEA-γGlu-γGlu-C18 diacid])RRAREFVAWLLNT-NH2; N-terminus assumed)
45 | CC(C)C[C@H](NC(=O)[C@H](Cc1ccc(O)cc1)NC(=O)[C@H](CCCCN)NC(=O)[C@H](CO)NC(=O)[C@H](CC(C)C)NC(=O)[C@H](CC(=O)O)NC(=O)[C@H](CO)NC(=O)[C@@H](NC(=O)[C@H](Cc1ccccc1)NC(=O)[C@@H](NC(=O)CNC(=O)[C@H](CCC(N)=O)NC(=O)C(C)(C)NC(=O)[C@@H](N)Cc1c[nH]cn1)[C@@H](C)O)[C@@H](C)O)C(=O)N[C@@H](CCC(=O)O)C(=O)N[C@@H](CO)C(=O)N[C@@H](CCCCN)C(=O)N[C@@H](CCCNC(=N)N)C(=O)N[C@@H](C)C(=O)N[C@@H](CCCNC(=N)N)C(=O)N[C@@H](CCC(=O)O)C(=O)N[C@@H](Cc1ccccc1)C(=O)N[C@H](C(=O)N[C@@H](CCC(N)=O)C(=O)N[C@@H](Cc1c[nH]c2ccccc12)C(=O)N[C@@H](CC(C)C)C(=O)N[C@@H](CC(C)C)C(=O)N[C@@H](CCCCNC(=O)CNC(=O)[C@H](CO)NC(=O)[C@H](CCC(=O)O)NC(=O)CNC(=O)[C@H](CO)NC(=O)CC[C@H](NC(=O)CC[C@H](NC(=O)CCCCCCCCCCCCCCCCC(=O)O)C(=O)O)C(=O)O)C(=O)N[C@H](C(N)=O)[C@@H](C)O)C(C)C [Example 25, N^ε28-[2-[[(2S)-2-[[(2S)-4-carboxy-2-[[2-[[(2S)-2-[[(4S)-4-carboxy-4-[[(4S)-4-carboxy-4-(17-carboxyheptadecanoylamino)butanoyl]amino]butanoyl]amino]-3-hydroxypropanoyl]amino]acetyl]amino]butanoyl]amino]-3-hydroxypropanoyl]amino]acetyl]-[Aib2,Leu10,Glu15,Lys17,Arg20,Glu21,Leu27,Lys28]-Glucagon amide] (I: H-H[Aib]QGTFTSDLSKYLESKRAREFVQWLLKT-NH2 / II: {C18 diacid-γGlu-γGlu}-SGESG; amide I:28-II:C; N-terminus assumed)

Compound | THT assay Lag time (Ex. 76) [h]
CC(C)C[C@H](NC(=O)[C@H](CC(=O)O)NC(=O)[C@H](CC(C)C)NC(=O)[C@H](Cc1ccc(O)cc1)NC(=O)[C@H](CCCCN)NC(=O)[C@H](CO)NC(=O)[C@H](CC(C)C)NC(=O)[C@H](CC(=O)O)NC(=O)[C@H](CO)NC(=O)[C@@H](NC(=O)[C@H](Cc1ccccc1)NC(=O)[C@@H](NC(=O)CNC(=O)[C@H](CCC(N)=O)NC(=O)C(C)(C)NC(=O)[C@@H](N)Cc1c[nH]cn1)[C@@H](C)O)[C@@H](C)O)C(=O)N[C@@H](CCCCN)C(=O)N[C@@H](CCCNC(=N)N)C(=O)N[C@@H](C)C(=O)N[C@@H](CCCNC(=N)N)C(=O)N[C@@H](CCC(=O)O)C(=O)N[C@@H](Cc1ccccc1)C(=O)N[C@H](C(=O)N[C@@H](CCC(N)=O)C(=O)N[C@@H](Cc1c[nH]c2ccccc12)C(=O)N[C@@H](CC(C)C)C(=O)N[C@@H](CC(C)C)C(=O)N[C@@H](CCCCNC(=O)CC[C@H](NC(=O)CC[C@H](NC(=O)COCCOCCNC(=O)COCCOCCNC(=O)CC[C@H](NC(=O)CCCCCCCCCCCCCCCCC(=O)O)C(=O)O)C(=O)O)C(=O)O)C(=O)N[C@H](C(N)=O)[C@@H](C)O)C(C)C [Example 26, N^ε28-[(4S)-4-carboxy-4-[[(4S)-4-carboxy-4-[[2-[2-[2-[[2-[2-[2-[[(4S)-4-carboxy-4-(17-carboxyheptadecanoylamino)butanoyl]amino]ethoxy]ethoxy]-acetyl]amino]ethoxy]ethoxy]acetyl]amino]butanoyl]amino]butanoyl]-[Aib2,Leu10,Leu16,Lys17,Arg20,Glu21, Leu27,Lys28]-Glucagon amide] (H-H[Aib]QGTFTSDLSKYLDLKRAREFVQWLLK([γGlu-γGlu-AEEA-AEEA-γGlu-C18 diacid])T-NH2) | 45
